Consider two molecules from patent US5096715A, “Method and means for treating alcoholism by extinguishing the alcohol-drinking response using a transdermally administered opiate antagonist” (Alko Ltd., priority 1989, dated 1992).

The conditions of series [1]: human.
The conditions of series [2]: cited from earlier work.
For series [3] the following is noted: several combinations of vehicles and enhancers; cited from earlier work.
For series [4] the following is noted: humans; cited from earlier work.

“Also recorded” adds a separate entry of the source.

Turning to `C=CCN1CC[C@]23c4c5ccc(O)c4O[C@H]2C(=O)CC[C@@]3(O)[C@H]1C5` [naloxone], the “naloxone present to block alcohol reinforcement at end of session” value in series [1] (4-7 hrs later, transdermal) is “Sufficient quantities of naloxone to block alcohol reinforcement would still be present; also recorded: Sufficient amounts of naloxone to block alcohol reinforcement would still be present”. For the same molecule, the systemic delivery rate result in series [1] (skin area of 900-1000 cm^2) is listed as “about 5 mg/min”. Moreover, the “time to deliver the entire 30 mg systemically” value in series [1] (including lag time of 18 min) is reported as “half an hour”. The “half-life in the body” value in series [2] is reported as “desirably short half-life”. The rates for naloxone entry in series [3] is recorded as “over 300 μg/cm^2 /hr”.
As to `O=C1CC[C@@]2(O)[C@H]3Cc4ccc(O)c5c4[C@@]2(CCN3CC2CC2)[C@H]1O5` [naltrexone], the severe side-effects result in series [4] was “free of severe side-effects”.
